Assay results published in patent US8148392B2, “2-indolyl imidazo [4,5-d] phenanthroline derivatives and their use in the treatment of cancer” (Lorus Therapeutics Inc., priority 2005, dated 2012).

Experiments:
[1] = system: intracellular zinc ions in HT-29 cells; assay: Chelation of intracellular zinc in HT-29 cells, Zinquin fluorescence; assay type: cell-based, human; settings: HT-29 with or without pre-loading with 35 μM ZnCl2, 30 min
Protocol: To determine the chelation property of compound 3 with intracellular zinc ions, HT-29 cells, with or without pre-loaded with 35 μM ZnCl2 were treated with compound 3, a known zinc chelator TPEN or vehicle control (DMSO), and intracellular free zinc was determined by measuring Zinquin fluorescence as described in the preceding Example (FIG. 37). HT-29 cells (4×10^5 cells/group) were pre-treated with 35 μM ZnCl2 for 20 min, followed by addition of indicated concentrations of compound 3 or TPEN and 10 μM Zinquin for 30 min at 37° C., and the fluorescence count was measured (FIG. 37A). For measurement of chelation of endogenous zinc ions in HT-29 cells, HT-29 cells (1.5×10^6 cells/group) were treated with indicated concentrations of compound 3 and 10 μM Zinquin for 30 min at 37° C., and the fluorescence count was measured (FIG. 37B).

[2] = system: metallothionein 1A (MT1A); assay: Metallothionein 1A (MT1A) mRNA expression in HT-29 cells, real time PCR; assay type: cell-based, human; settings: HT-29, versus DMSO control, in words
Protocol: To determine whether compounds of Formula I can chelate zinc in cells, the effect of compound 3 on the expression level of a zinc-regulated gene, metallothionein 1A (MT1A), in human colon carcinoma HT-29 cells, was determined. HT-29 cells, 1×10^6 cells in 10 mL volume of the growth medium were seeded in 100 mm dishes and incubated overnight at 37° C. The medium was removed and replaced with the growth medium containing 35 μM ZnCl2, 1 μM or 4 μM TPEN (NNNN-tetrakis(2-pyridyl-methyl)ethylenediamine), or 1 μM or 4 μM compound 3, or 0.1% DMSO vehicle control. After incubation for 16 hours, the cells were detached by trypsinization, collected by centrifugation and washed once with PBS. Total RNA was extracted by using TRIZOL (Invitrogen, Life Technologies, Carlsbad, Calif.), following manufacturer's instruction, and the level of MT1A mRNA was measured by real time PCR using the comparative CT method as follows. First strand cDNA was synthesized from 200 ng total RNA in Biometra Tpersonal Thermal Cycler (Abgene, UK), using pd(N)6 random hexamer (Amersham Biosciences, Piscataway, N.J.) and SuperScript™ II Reverse Transcriptase kit (Invitrogen) by following manufacturer's protocol. Real-time PCR was performed in ABI Prism 7000 Sequence Detection System (Applied Biosystems Inc., ABI, Foster City, Calif.), using 5 μL of cDNA synthesized by above-mentioned procedure and respective TaqMan® Gene Expression Assays (ABI) by following ABI TaqMan® Universal PCR master mix protocol.
The effect of compound 3 and compound 7 treatment on the expressions of a zinc-storage protein meallothionein 1A (MT1A) (FIG. 29A), a copper transporter, Ctrl also known as SLC31A1 (FIG. 29B) and an iron transporter; transferrin receptor 1 (TfR1) (FIG. 29C) were measured and compared with a known zinc chelator TPEN, a copper chelator tetramine and an iron chelator DFO, respectively. Despite in vitro chelation of Cu^+2, increase in copper-sensitive gene after compound 3 treatment was transient.
HT-29 cells were treated with 1 μM compound 3 for the indicated time and MT1A gene expression was measured as follows. Total RNA was extracted using TRIZOL method and gene expression level was determined by quantitative reverse-transcription polymerase chain reaction (RT-PCR). MT1A gene expression was normalized with β-actin gene expression in the same sample. Fold change in MT1A was expressed relative to MT1A level of DMSO control at respective time points.
To verify that the MT1A gene expression reflected the intracellular zinc level, HT-29 cells were treated with 1 μM compound 3, 35 μM ZnCl2 or compound 3 and ZnCl2 together for 16 hr (FIG. 38B). MT1A gene expression was determined by RT-PCR as described above. MT1A gene expression was elevated in response to increased intracellular zinc ions in ZnCl2-treated cells.
The ability of compounds of Formula I to modulate gene expression of MT1A (FIG. 55A), MTF-1 (FIG. 55B), Cyclin D1 (FIG. 55C) and KLF4 (FIG. 55D) was determined by RT-PCR. HT-29 cells were treated with 1 μM compound 3 or compound 7, 35 μM ZnCl2, compound 3 and ZnCl2 together, or compound 7 and ZnCl2 together for 8 to 16 hr. The respective gene expression was normalized with β-actin gene expression in the same sample. Fold change in gene expression was expressed relative to the respective gene level of DMSO control.
The effect of compound 3 and compound 64 on gene expression changes in MT1A (FIG. 57A), MTF-1 (FIG. 57B), Cyclin D1 (FIG. 57C) and KLF4 (FIG. 57D) in HT-29 cells was determined by RT-PCR. HT-29 cells were treated with 1 μM compound 3 or compound 64, 35 μM ZnCl2, compound 3 and ZnCl2 together, or compound 64 and ZnCl2 together for 8 to 16 hr. The respective gene expression was normalized with β-actin gene expression in the same sample. Fold change in gene expression was expressed relative to the respective gene level of DMSO control.

Which “intracellular free zinc (Zinquin fluorescence)” value [1] does the source give for `c1ccc(CN(CCN(Cc2ccccn2)Cc2ccccn2)Cc2ccccn2)nc1` [TPEN, NNNN-tetrakis(2-pyridyl-methyl)ethylenediamine, reference compound] here?
Its value is “Dose-dependent decrease in both pre-loaded zinc and endogenous zinc levels”.

And the “MT1A gene expression, change” value [2]?
The value was “decreased the expression of MT1A”.
